A word on the EC50: it is the midpoint of the concentration-response curve. Read a high EC50 as weaker potency. For orientation: ED50 means the dose at which the effect has come halfway, by size or by number of responders.

The text below walks through data of patent publication US20090221547A1, “Immunosuppressant Compounds and Compositions” (IRM LLC, priority 2005, published 2009).

One test has as its target T1, human EDG-1 (Homo sapiens, UniProt P21453).
T1 construct: c-myc (N); expressed in transfected cells; host or cells: CHO cell clones (membrane preparation)
Nature of the test: EDG-1 (S1P1) GTP [γ-35S] binding assay (SPA), membranes of CHO cells. In kind it is biochemical. As to conditions: membranes from CHO cells expressing human EDG-1. The procedure:
(§1) A. In vitro: A scintillation proximity assay (SPA) for measuring GTP [γ-^35S] binding to membranes prepared from CHO cells expressing human EDG/S1P receptors.
EDG-1 (S1P1) GTP [γ-^35S] binding assay: Membrane protein suspensions are prepared from CHO cell clones stably expressing a human EDG-1 N-terminal c-myc tag. Solutions of test compounds ranging from 10 mM to 0.0 nM are prepared in DMSO/50 mM HCl and then diluted into assay buffer (20 mM HEPES, pH7.4, 100 mM NaCl, 10 mM MgCl2, 0.1% fat free BSA). Assay buffer-containing […] is mixed with wheat-germ agglutinin-coated SPA-beads (1 mg/well) followed by the addition of human EDG-1 membrane protein suspension (10 μg/well) and test compound. The bead/membrane/compound assay components are then mixed for 10-15 minutes on a shaker at room temperature. GTP [γ-^35S] (200 pM) and bead/membrane/compound assay mixture are added to individual wells of a 96 well Optiplate™ (final volume 225 μl/well), sealed and incubated at room temperature for 110 to 120 minutes under constant shaking. After centrifugation (2000 rpm, 10 minutes) luminescence is measured with a TopCount™ instrument.
EC50 values are obtained by fitting the GTP [γ-^35S] binding curves (raw data) with the dose response curve-fitting tool of ORIGIN V. 6.1. […]

The subject of test [1] is EDG-3, EDG-5, EDG-6 and EDG-8. The test can be described thus: EDG-3, -5, -6 and -8 GTP [γ-35S] binding assays (SPA), CHO or RH7777 membranes. The class given is biochemical, human.
Excerpt: as §1
EC50 values are obtained by fitting the GTP [γ-^35S] binding curves (raw data) with the dose response curve-fitting tool of ORIGIN V. 6.1. Basal binding (no compound) and the highest stimulation of GTP [γ-^35S] binding achieved by an agonist are used as the fitting range. Seven different concentrations are used to generate a concentration response curve (using two or three data points per concentration).
Concentrations of EDG receptor expressing membranes range between 13-19 μg per well. […] For example, 5-[4-(2′-fluoro-2-trifluoromethyl-biphenyl-4-yloxymethyl)-phenyl]-pyridine-2-carboxylic acid has an EC50 of 0.9 nM in the above assay and is at least 500 fold selective for EDG-1 compared to one or more of the other receptors including EDG-3, EDG-5, EDG-6 and EDG-8.

The test system of test [2] is peripheral blood lymphocytes. Nature of the test: Blood lymphocyte depletion, measurement of circulating lymphocytes. The class given is in vivo. As to conditions: Rattus norvegicus, Lewis rats, oral gavage 0.01-5 mg/kg, blood 6 and 48 hours after administration, read-out: ED50, effective dose required displaying 50% of blood lymphocyte depletion. The procedure:
C. In vivo: Screening Assays for Measurement of Blood Lymphocyte Depletion
Measurements of circulating lymphocytes: Compounds are dissolved in DMSO and PEG300 and diluted to obtain a final concentration of 2% DMSO and 2% PEG300 (v/v, final concentration). Lewis rats are administered compound solution orally by gavages at 0.01-5 mg/kg under short isoflurane anesthesia.
Blood is collected from the retro-orbital sinus 6 and 48 hours after drug administration under short isoflurane anesthesia. Whole blood samples are subjected to hematology analysis. Peripheral lymphocyte counts are determined using an automated analyzer. Subpopulations of peripheral blood lymphocytes are stained by fluorochrome-conjugated specific antibodies and analyzed using a fluorescent activating cell sorter (Facscalibur). Two to three rats are used to assess the lymphocyte depletion activity of each compound screened. The result is an ED50, which is defined as the effective dose required displaying 50% of blood lymphocyte depletion.

T1 sequence (P21453 whole entry): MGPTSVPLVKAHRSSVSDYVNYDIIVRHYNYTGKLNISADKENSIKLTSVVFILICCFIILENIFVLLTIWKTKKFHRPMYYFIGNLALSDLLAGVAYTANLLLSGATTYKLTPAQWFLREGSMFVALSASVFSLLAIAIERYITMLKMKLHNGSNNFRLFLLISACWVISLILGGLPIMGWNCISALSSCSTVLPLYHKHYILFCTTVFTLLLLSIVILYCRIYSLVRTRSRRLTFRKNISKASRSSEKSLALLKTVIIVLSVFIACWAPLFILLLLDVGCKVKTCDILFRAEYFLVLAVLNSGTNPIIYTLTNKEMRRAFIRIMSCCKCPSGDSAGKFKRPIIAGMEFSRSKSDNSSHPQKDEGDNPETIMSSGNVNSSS

On to `O=C(O)c1ccc(-c2ccc(COc3ccc(-c4ccccc4F)c(C(F)(F)F)c3)cc2)cn1` [Example 1, 5-[4-(2′-Fluoro-2-trifluoromethyl-biphenyl-4-yloxymethyl)-phenyl]-pyridine-2-carboxylic acid], for which, on human EDG-1, the EC50 is 0.9 nM. In test [1], the “fold selective for EDG-1 compared to one or more of the other receptors including EDG-3, EDG-5, EDG-6 and EDG-8” value is on record as “at least 500 fold”. For the same molecule, in test [2], the median effective dose (ED50) worked out at 0.3 mg/kg.
